Read-outs that look alike come from different tables or passages of the source.

Format in all cases: cell-based
Assay [1] deals with encephalomyocarditis virus. The assay is described as follows: CPE inhibition in mammalian cell culture, EMCV. On the set-up: inhibition: dose or concentration left out as unconfirmed. The conditions noted are these: Cardiovirus A; for inhibition at 10 µM: Conc. 10.0 μM; for inhibition at 100 µM: Conc. 0.1 mM.
For assay [2], the system named is Ljungan virus strain 012. Briefly: CPE inhibition in mammalian cell culture, LV012. The conditions noted are these: Parechovirus B; for inhibition at 5 µM: Conc. 5 µM; for inhibition at 100 µM: Conc. 0.1 mM.
For assay [3], the system named is coxsackie B virus strain 1. Briefly: CPE inhibition in mammalian cell culture, Cox-B1. On the set-up: inhibition: dose or concentration left out as unconfirmed.
Assay [4] deals with Enterovirus strain 30. The assay is described as follows: CPE inhibition in mammalian cell culture, EV30. On the set-up: inhibition: dose or concentration left out as unconfirmed. To be noted: for inhibition at 5 µM: Conc. 5 µM; for inhibition at 2.5 µM: Conc. 2.5 µM.
Assay [5] has as its system coxsackie B virus strain 5. Briefly: CPE inhibition in mammalian cell culture, Cox-B5. On the set-up: inhibition: dose or concentration left out as unconfirmed.
Assay [6] relates to Enterovirus strain 6. Briefly: microbe, parasite or virus in culture. On the set-up: inhibition: dose or concentration left out as unconfirmed. To be noted: Conc., read-out: antiviral effect, EV6.
Assay [7] deals with Human parechovirus strain 1. Briefly: CPE inhibition in mammalian cell culture, HPeV-1. To be noted: Parechovirus A; for inhibition at 5 µM: Conc. 5 µM; for inhibition at 2.5 µM: Conc. 2.5 µM.
Assay [8] deals with coxsackie B virus strain 4. Briefly: CPE inhibition in mammalian cell culture, Cox-B4.
Assay [9] deals with polio virus strain 1. Briefly: microbe, parasite or virus in culture. On the set-up: inhibition: dose or concentration left out as unconfirmed. The conditions noted are these: read-out: antiviral effect, Polio 1.
In assay [10] the test system is coxsackie B virus strain 2. Briefly: CPE inhibition in mammalian cell culture, Cox-B2. The arrangement: inhibition: dose or concentration left out as unconfirmed. The conditions noted are these: read-out: antiviral effect, B2.
Assay [11] has as its system Ljungan virus strain 145. The assay is described as follows: CPE inhibition in mammalian cell culture, LV145. On the set-up: inhibition: dose or concentration left out as unconfirmed. The conditions noted are these: Parechovirus B; for inhibition at 100 µM: Conc. 0.1 mM.
Assay [12] relates to Enterovirus strain 71. Briefly: CPE inhibition in mammalian cell culture, EV71. On the set-up: inhibition: dose or concentration left out as unconfirmed. The conditions noted are these: read-out: antiviral effect, EV71.
The test system of assay [13] is coxsackie B virus strain 3. The assay is described as follows: CPE inhibition in mammalian cell culture, Cox-B3. On the set-up: inhibition: dose or concentration left out as unconfirmed.
The mark [14] stands for this setting: read-out: antiviral effect, LV012.
The mark [15] stands for this setting: read-out: antiviral effect, EV30.
Where [16] appears, read: read-out: antiviral effect, HPeV-1.
The mark [17] stands for this setting: Conc. 2.5 µM, read-out: antiviral effect, LV012.
The mark [18] stands for this setting: HPeV-1, Conc. 10.0 μM, read-out: % inh.
[19] abbreviates: read-out: antiviral effect, EMCV.
The mark [20] stands for this setting: read-out: antiviral effect, LV145.

Take `Cc1cc(NC(C)c2ccccc2)n2nc(C)c(-c3ccc(F)cc3)c2n1` (stereo not drawn) [Ex. 3, 3-(4-fluorophenyl)-2,5-dimethyl-N-(1-phenylethyl)pyrazolo[1,5-a]pyrimidin-7-amine]: the inhibition at 2.5 µM in assay [1] (EMCV, Conc. 2.5 μM) is 92%.
Take `COc1ccc(-c2c(C)nn3c(NCCc4ccc(Cl)cc4)cc(C)nc23)cc1OC` [Ex. 5, N-[2-(4-chlorophenyl)ethyl]-3-(3,4-dimethoxyphenyl)-2,5-dimethyl-pyrazolo[1,5-a]pyrimidin-7-amine]: the values for the inhibition at 5 µM in assay [2] (setting [14]), in assay [4] (setting [15]) and in [7] (setting [16]) were 18%, 58% and 22%, respectively. The inhibition at 5000 µM in assay [3] (read-out: antiviral effect, B1) was 79%; in [5] (read-out: antiviral effect, B5) it was 94%; in [8] (read-out: antiviral effect, B4), 97%; in assay [9] it was 68%; in assay [10] it was 76%. Moreover, the inhibition in assay [6] turned out to be 80%. In addition, the inhibition at 0.25 µM in assay [8] (read-out: % inh.) was 71%.
In the case of `COc1ccc(-c2c(C)nn3c(NCCCc4ccccc4)cc(C)nc23)cc1OC` [Ex. 7, 3-(3,4-dimethoxyphenyl)-2,5-dimethyl-N-(3-phenylpropyl)pyrazolo[1,5-a]pyrimidin-7-amine], the inhibition at 2.5 µM worked out at 14% in assay [2] (setting [17]); 89% in [4] (setting [15]); 6% in [7] (setting [16]); 54% in assay [11] (LV145, Conc. 2.5 μM). Besides, the inhibition at 2500 µM in assay [3] (read-out: antiviral effect, B1) stood at 77%; in assay [5] (read-out: antiviral effect, B5), 68%; in assay [8] (read-out: antiviral effect, B4), 82%; in assay [9] it was 80%; in [10], 92%.
`COc1ccc(-c2c(C)nn3c(NCc4ccc5c(c4)OCO5)cc(C)nc23)cc1OC` [Ex. 8, N-(1,3-benzodioxol-5-ylmethyl)-3-(3,4-dimethoxyphenyl)-2,5-dimethyl-pyrazolo[1,5-a]pyrimidin-7-amine]: the results for the inhibition at 5 µM in assay [2] (setting [14]), in [4] (setting [15]) and in assay [7] (setting [16]) were 38%, 53% and 14%, respectively. The inhibition at 5000 µM was 82% in assay [3] (read-out: antiviral effect, B1); 100% in assay [5] (read-out: antiviral effect, B5); 89% in [8] (read-out: antiviral effect, B4); 91% in [9]; 100% in assay [10]. In addition, in [5] (read-out: % inh.), the inhibition at 0.25 µM was 100%. Further, the inhibition in assay [6] was found to be 88%.
As to `COc1ccc(CCNc2cc(C)nc3c(-c4ccc(OC)c(OC)c4)c(C)nn23)c(OC)c1` [Ex. 12, 3-(3,4-dimethoxyphenyl)-N-[2-(2,4-dimethoxyphenyl)ethyl]-2,5-dimethyl-pyrazolo[1,5-a]pyrimidin-7-amine], the inhibition at 2.5 µM was 60% in [2] (setting [17]); 60% in [2] (LV012, Conc. 2.5 μM, read-out: % inh.); 84% in assay [4] (setting [15]); 8% in assay [7] (setting [16]). The inhibition at 2500 µM in assay [3] (read-out: antiviral effect, B1) stood at 93%; in assay [5] (read-out: antiviral effect, B5), 82%; in assay [8] (read-out: antiviral effect, B4) it was 77%; in [9] it was 73%.
Consider `Cc1cc(NCc2ccccc2)n2ncc(-c3ccc(Cl)cc3)c2n1` [Ex. 25, N-benzyl-3-(4-chlorophenyl)-5-methyl-pyrazolo[1,5-a]pyrimidin-7-amine], for which the inhibition at 10 µM in assay [7] (setting [18]) is 24%.
As for `Cc1ccc(-c2c(C)nn3c(NCc4ccccn4)cc(C)nc23)cc1` [Ex. 33, 2,5-dimethyl-3-(p-tolyl)-N-(2-pyridylmethyl)pyrazolo[1,5-a]pyrimidin-7-amine], the inhibition at 10 µM in [4] (Conc. 10 µM, read-out: antiviral effect, EV30) is 85%; in [7] (Conc. 10 µM, read-out: antiviral effect, HPeV-1), 13%. Also, in [4] (EV30, Conc. 1.0 μM, read-out: % inh.), the inhibition at 1 µM is 48%. Besides, the inhibition at 10000 µM in assay [5] (read-out: antiviral effect, B5) came to 92%; in assay [9], 58%; in [10], 81%. The inhibition in [12] (Conc.) was determined as 0%; in assay [1] (Conc., read-out: antiviral effect, EMCV), 60%; in assay [11] (Conc., read-out: antiviral effect, LV145), 69%.
In assay [1] (EMCV), `COc1ccc(-c2c(C)nn3c(NC4CCCC4)cc(C)nc23)cc1OC` [Ex. 41, N-cyclopentyl-3-(3,4-dimethoxyphenyl)-2,5-dimethyl-pyrazolo[1,5-a]pyrimidin-7-amine] displayed an inhibition at 10 µM of 93%.
In the case of `COc1ccc(-c2c(C)nn3c(NC4CCCCC4)cc(C)nc23)cc1OC` [Ex. 43, N-cyclohexyl-3-(3,4-dimethoxyphenyl)-2,5-dimethyl-pyrazolo[1,5-a]pyrimidin-7-amine], in assay [7] (setting [18]), the inhibition at 10 µM turned out to be 46%.
Same read-out and setting: next, `COc1ccc(-c2c(C)nn3c(Nc4ccc(Cl)cc4)cc(C)nc23)cc1OC` [Ex. 47, N-(4-chlorophenyl)-3-(3,4-dimethoxyphenyl)-2,5-dimethyl-pyrazolo[1,5-a]pyrimidin-7-amine]: 56%; `COc1ccc(-c2c(C)nn3c(Nc4ccccc4)cc(C)nc23)cc1OC` [Ex. 57, 3-(3,4-dimethoxyphenyl)-2,5-dimethyl-N-phenyl-pyrazolo[1,5-a]pyrimidin-7-amine]: 22%.
With `COc1ccc(-c2c(C)nn3c(NCc4ccc(C(F)(F)F)cc4)cc(C)nc23)cc1OC` [Ex. 72, 3-(3,4-dimethoxyphenyl)-2,5-dimethyl-N-[[4-(trifluoromethyl)phenyl]methyl]pyrazolo[1,5-a]pyrimidin-7-amine], the inhibition at 1 µM in assay [2] (Conc. 1 µM, read-out: antiviral effect, LV012) was determined as 0%; in [4] (Conc. 1 µM, read-out: antiviral effect, EV30), 100%; in assay [7] (Conc. 1 µM, read-out: antiviral effect, HPeV-1), 4%. The inhibition at 1000 µM came out at 100% in assay [3] (read-out: antiviral effect, B1); 99% in assay [13] (read-out: antiviral effect, B3); 99% in assay [5] (read-out: antiviral effect, B5); 91% in [8] (read-out: antiviral effect, B4); 100% in assay [9]; 94% in assay [10]. The inhibition at 0.1 µM in [8] (read-out: % inh.) was 85%.
Take `COc1ccc(-c2c(C)nn3c(Nc4ccc(C(F)(F)F)cc4)cc(C)nc23)cc1OC` [Ex. 73, 3-(3,4-dimethoxyphenyl)-2,5-dimethyl-N-[4-(trifluoromethyl)phenyl]pyrazolo[1,5-a]pyrimidin-7-amine]: in [8] (read-out: % inh.), the inhibition at 0.1 µM is 44%.
In the case of `COc1ccc(-c2c(C)nn3c(NCc4ccc(C)nc4)cc(C)nc23)cc1OC` [Ex. 92, 3-(3,4-dimethoxyphenyl)-2,5-dimethyl-N-[(6-methyl-3-pyridyl)methyl]pyrazolo[1,5-a]pyrimidin-7-amine], the inhibition at 100 µM in assay [2] (setting [14]), in assay [1] (setting [19]) and in assay [11] (setting [20]) was 0% each time. Further, the inhibition in [3] (read-out: antiviral effect, B1) was found to be 100%; in assay [4] (setting [15]) it was 100%; in assay [13] (read-out: antiviral effect, B3), 100%; in assay [5] (read-out: antiviral effect, B5), 95%; in assay [9], 98%; in assay [10] it was 96%. In [13] (read-out: % inh.), the inhibition at 0.01 µM came out at 100%.
As for `COc1ccc(-c2c(C)nn3c(NCc4ccc(C(C)=O)cc4)cc(C)nc23)cc1OC` [Ex. 94, 1-[4-[[[3-(3,4-dimethoxyphenyl)-2,5-dimethyl-pyrazolo[1,5-a]pyrimidin-7-yl]amino]methyl]phenyl]ethanone], the inhibition at 100 µM in assay [2] (setting [14]) came to 12%; in [4] (Conc. 0.1 mM, read-out: antiviral effect, EV30) it was 96%; in assay [12] (Conc. 0.1 mM) it was 100%; in [1] (setting [19]) it was 0%; in assay [11] (setting [20]), 0%. Moreover, the inhibition at 0.01 µM in assay [3] (read-out: % inh.) was determined as 100%. Moreover, the inhibition stood at 100% in assay [3] (read-out: antiviral effect, B1); 100% in assay [13] (read-out: antiviral effect, B3); 56% in [5] (read-out: antiviral effect, B5); 100% in assay [9]; 100% in [10].
Regarding `COc1ccc(-c2c(C)nn3c(Nc4ccon4)cc(C)nc23)cc1OC` [Ex. 95, N-[3-(3,4-dimethoxyphenyl)-2,5-dimethyl-pyrazolo[1,5-a]pyrimidin-7-yl]isoxazol-3-amine], the inhibition at 10 µM in assay [7] (setting [18]) was determined as 55%.
Turning to `Cc1cc(NCc2ccc(F)cc2)n2nc(C)c(-c3ccc4c(c3)OCO4)c2n1` [Ex. 102, 3-(1,3-benzodioxol-5-yl)-N-[(4-fluorophenyl)methyl]-2,5-dimethyl-pyrazolo[1,5-a]pyrimidin-7-amine], the inhibition at 1 µM in [13] (read-out: % inh.) came out at 100%.
In turn, `Cc1cc(NCc2ccc(F)cc2)n2nc(C)c(-c3ccc(Cl)c(Cl)c3)c2n1` [Ex. 103, 3-(3,4-dichlorophenyl)-N-[(4-fluorophenyl)methyl]-2,5-dimethyl-pyrazolo[1,5-a]pyrimidin-7-amine] showed an inhibition at 10 µM in [1] (EMCV) of 74%.

Values taken from patent US9963455B2, “Pyrazolo[1,5-a]pyrimidines as antiviral compounds” (Curovir AB, priority 2014, dated 2018).
